± gives the expanded uncertainty stated by the source.
Test: activity coefficient (dimensionless); of the first substance listed, at infinite dilution; xn = mol fraction of the nth substance listed
Details: Liquid, x1 = 0

Compound	activity coefficient (297 K)	activity coefficient (307 K)	activity coefficient (316 K)	activity coefficient (325 K)	activity coefficient (335 K)	activity coefficient (344 K)
CCCCCCCCCC [decane] + CCCC[n+]1ccc(C)cc1.F[B-](F)(F)F	491 ± 94	430 ± 82	389 ± 74	359 ± 68	320 ± 61	283 ± 54
CCCCCCCCC [nonane] + CCCC[n+]1ccc(C)cc1.F[B-](F)(F)F	309 ± 59	275 ± 52	241 ± 46	229 ± 43	201 ± 38	201 ± 38
CCCCCCCC [octane] + CCCC[n+]1ccc(C)cc1.F[B-](F)(F)F	182 ± 34	170 ± 32	158 ± 30	142 ± 27	124 ± 23	119 ± 22

Source: the NIST ThermoML archive (doi:10.1016/j.fluid.2006.10.016)
